Results on 29 molecules are retold here after patent US8901315B2, “Thienopyrazole derivative having PDE7 inhibitory activity” (Daiichi Sankyo Company, Limited, priority 2004, dated 2014).

For test [1], the target named is PDE 4 (phosphodiesterase IV). In words: PDE 4 inhibiting effect (3H-cAMP hydrolysis, PDE 4 active fraction from Balb/c mouse liver). Type of test: biochemical. Particulars: PDE 4 fraction from Balb/c mice liver, 0.064 μM cAMP, 2 hours at 25° C.; read-out: PDE4 IC50. The essentials: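 Activity was measured as 3H-cAMP hydrolysis, with Sephadex-QAE added after the reaction. The enzyme was a PDE4-active fraction from 12-week male Balb/c mouse liver, taken from the ultracentrifuged soluble fraction by DEAE sepharose chromatography (0.05-1 M sodium acetate gradient, pH 6.5 buffer).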

For test [2], the target named is PDE 7 (phosphodiesterase VII) (Homo sapiens (Human), UniProt Q13946). In words: PDE 7 inhibiting effect (3H-cAMP hydrolysis, PDE 7 active fraction from MOLT-4 cells). Type of test: biochemical. Particulars: PDE 7 fraction from MOLT-4 cells, 0.064 μM cAMP, 10 μM rolipram, 2 hours at 25° C.; read-out: PDE7 IC50. The essentials: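 ³H-cAMP hydrolysis by a PDE7-active fraction was followed, and the reaction was worked up with a Sephadex-QAE suspension (10 mM HEPES-Na, pH 7.0). Enzyme came from MOLT-4 cell soluble extract (pH 7.5 Tris buffer, 100,000×G supernatant), fractionated by HiTrap Q anion exchange with a 0–0.8 M NaCl gradient.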
Sequence of PDE 7 (phosphodiesterase VII) (Q13946 whole entry): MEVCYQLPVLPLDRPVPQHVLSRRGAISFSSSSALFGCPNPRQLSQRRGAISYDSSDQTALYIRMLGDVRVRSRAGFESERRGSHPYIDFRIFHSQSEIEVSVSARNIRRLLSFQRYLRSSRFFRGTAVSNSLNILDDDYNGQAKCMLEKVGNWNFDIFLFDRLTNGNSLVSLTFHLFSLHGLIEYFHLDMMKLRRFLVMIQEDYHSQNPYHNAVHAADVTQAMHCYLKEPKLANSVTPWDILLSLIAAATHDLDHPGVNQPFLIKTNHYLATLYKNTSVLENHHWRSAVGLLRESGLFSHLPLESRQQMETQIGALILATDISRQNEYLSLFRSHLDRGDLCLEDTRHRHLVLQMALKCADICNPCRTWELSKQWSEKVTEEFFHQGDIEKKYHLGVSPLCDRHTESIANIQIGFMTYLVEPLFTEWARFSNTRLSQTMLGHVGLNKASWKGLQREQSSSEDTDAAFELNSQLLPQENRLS

As usually defined, the IC50 is the midpoint of a concentration-inhibition curve. On to `CCOC(=O)c1ccc(NC(=O)c2cc3c(C)nn(C4CCCCC4)c3s2)cc1` [Example 40, Ethyl 4-{[(1-cyclohexyl-3-methyl-1H-thieno[2,3-c]pyrazol-5-yl)-carbonyl]amino}benzoate], for which the IC50 in test [1] was 15000 nM; in test [2] it was 75 nM.
For `Cc1nn(C2CCCCC2)c2sc(C(=O)NCCN3C(=O)CNC3=O)cc12` [Example 305, 1-Cyclohexyl-N-[2-(2,5-dioxo-1-imidazolidinyl)ethyl]-3-methyl-1H-thieno[2,3-c]pyrazole-5-carboxamide], in that order: 6800 nM and 66 nM.
For `CC(=O)N[C@H]1CC[C@H](NC(=O)c2cc3c(C)nn(C4CCCCC4)c3s2)CC1` [Example 80, N-[trans-4-(Acetylamino)cyclohexyl]-1-cyclohexyl-3-methyl-1H-thieno[2,3-c]pyrazole-5-carboxamide], in that order: 2500 nM and 60 nM.
For `Cc1nn(C2CCCCC2)c2sc(C(=O)Nc3ccc(C(=O)NCCO)nc3)cc12` [Example 379, 1-Cyclohexyl-N-(6-{[(2-hydroxyethyl)amino]carbonyl}-3-pyridinyl)-3-methyl-1H-thieno[2,3-c]pyrazole-5-carboxamide], in that order: 1200 nM and 13 nM.
As for `Cc1nn(C2CCCCC2)c2sc(C(=O)N[C@H]3CC[C@H](N4CCNC4=O)CC3)cc12` [Example 271, 1-Cyclohexyl-3-methyl-N-[trans-4-(2-oxo-1-imidazolidinyl)-cyclohexyl]-1H-thieno[2,3-c]pyrazole-5-carboxamide], the IC50 in test [1] was determined as 2100 nM; in test [2] it was 8.9 nM.
Taken in the same sequence, the figures for `CCC(=O)N1CCc2cc(NC(=O)c3cc4c(C)nn(C5CCCCC5)c4s3)ccc21` [Example 21, 1-Cyclohexyl-3-methyl-N-(1-propionyl-2,3-dihydro-1H-indol-5-yl)-1H-thieno-[2,3-c]pyrazole-5-carboxamide] were 2500 nM and 84 nM.
Taken in the same sequence, the figures for `Cc1nn(C2CCCCC2)c2sc(C(=O)N[C@H]3CC[C@H](N4CCC(O)CC4)CC3)cc12` [Example 176, 1-Cyclohexyl-N-[trans-4-(4-hydroxy-1-piperidinyl)cyclohexyl]-3-methyl-1H-thieno[2,3-c]pyrazole-5-carboxamide] were 1700 nM and 20 nM.
For `COC(=O)c1ccc(NC(=O)c2cc3c(C)nn(C4CCCCC4)c3s2)cn1` [Example 102, Methyl 5-{[(1-Cyclohexyl-3-methyl-1H-thieno[2,3-c]pyrazol-5-yl)-carbonyl]amino}-2-pyridinecarboxylate], in that order: 5500 nM and 85 nM.
For `Cc1nn(C2CCCCC2)c2sc(C(=O)N[C@H]3CC[C@H](N4CCC(N)CC4)CC3)cc12` [Example 184, N-[trans-4-(4-Amino-1-piperidinyl)cyclohexyl]-1-cyclohexyl-3-methyl-1H-thieno[2,3-c]pyrazole-5-carboxamide], the IC50 in test [1] came out at 1100 nM; in test [2], 6.8 nM.
Take `Cc1nn(C2CCCCC2)c2sc(C(=O)N[C@H]3CC[C@H](C(=O)N4CCC(O)CC4)CC3)cc12` [Example 239, 1-Cyclohexyl-N-{4-[(4-hydroxy-1-piperidinyl)carbonyl]cyclohexyl}-3-methyl-1H-thieno[2,3-c]pyrazole-5-carboxamide]: the figures for the IC50 in test [1] and in test [2] were 2600 nM and 15 nM, respectively.
For `CC(=O)N1CCN(C[C@H]2CC[C@H](NC(=O)c3cc4c(C)nn(C5CCOCC5)c4s3)CC2)CC1` [Example 360, N-{trans-4-[(4-Acetyl-1-piperazinyl)methyl]cyclohexyl}-3-methyl-1-tetrahydro-2H-pyran-4-yl-1H-thieno[2,3-c]pyrazole-5-carboxamide], in that order: 7900 nM and 57 nM.
For `Cc1nn(C2CCOCC2)c2sc(C(=O)N[C@H]3CC[C@H](N4CCNC(=O)C4)CC3)cc12` [Example 417, 3-Methyl-N-[trans-4-(3-oxo-piperazinyl)cyclohexyl]-1-tetrahydro-2H-pyran-4-yl-1H-thieno[2,3-c]pyrazole-5-carboxamide], in that order: 7000 nM and 63 nM.
Taken in the same sequence, the figures for `Cc1nn(C2CCCCC2)c2sc(C(=O)NCCN3CC(=O)N(C)C3=O)cc12` [Example 317, 1-Cyclohexyl-3-methyl-N-[2-(3-methyl-2,4-dioxo-1-imidazolidinyl)-ethyl]-1H-thieno[2,3-c]pyrazole-5-carboxamide] were 12000 nM and 67 nM.
For the molecule `Cc1nn(C2CCCCC2)c2sc(C(=O)Nc3ccc(CN4C(=O)CN(C)C4=O)cc3)cc12` [Example 202, 1-Cyclohexyl-methyl-N-{4-[(3-methyl-2,5-dioxo-1-imidazolidinyl)-methyl]phenyl}-1H-thieno[2,3-c]pyrazole-5-carboxamide], the IC50 in test [1] turned out to be 2400 nM; in test [2], 33 nM.
For `Cc1nn(C2CCCCC2)c2sc(C(=O)N[C@H]3CC[C@H](N4CCN(C)CC4)CC3)cc12` [Example 166, 1-Cyclohexyl-3-methyl-N-[trans-4-(4-methyl-1-piperazinyl)-cyclohexyl]-1H-thieno[2,3-c]pyrazole-5-carboxamide], in that order: 1300 nM and 16 nM.
`CNC(=O)Cc1ccc(NC(=O)c2cc3c(C)nn(C4CCCCC4)c3s2)cc1` [Example 70]: the IC50 in test [1] worked out at 4700 nM; in test [2] it was 25 nM.
Take `CC(=O)N1CCc2cc(NC(=O)c3cc4c(C)nn(C5CCCCC5)c4s3)ccc21` [Example 11, N-(1-Acetyl-2,3-dihydro-1H-indo-5-yl)-1-cyclohexyl-3-methyl-1H-thieno[2,3-c]pyrazole-5-carboxamide]: the IC50 came to 2000 nM in test [1] and 19 nM in test [2].
For the molecule `Cc1nn(C2CCCCC2)c2sc(C(=O)Nc3ccc(C(=O)O)cc3)cc12` [Example 41, 4-{[(1-Cyclohexyl-methyl-1H-thieno[2,3-c]pyrazol-5-yl)carbonyl]-amino}benzoic acid], the IC50 worked out at 12000 nM in test [1] and 50 nM in test [2].
For `Cc1nn(C2CCCCC2)c2sc(C(=O)NCCN3C(=O)CN(C)C3=O)cc12` [Example 277, 1-Cyclohexyl-3-methyl-N-[2-(3-methyl-2,5-dioxo-1-imidazolidinyl)-ethyl]-1H-thieno[2,3-c]pyrazole-5-carboxamide], in that order: 7800 nM and 32 nM.
For the molecule `CC[C@H](CN1C(=O)CNC1=O)NC(=O)c1cc2c(C)nn(C3CCCCC3)c2s1` [Example 331, 1-Cyclohexyl-N-{(1R)-1-[(2,5-dioxo-1-imidazolidinyl)methyl]propyl}-3-methyl-1H-thieno[2,3-c]pyrazole-5-carboxamide], the IC50 in test [1] amounted to 4900 nM; in test [2], 29 nM.
Taken in the same sequence, the figures for `CC(=O)N1CCN(Cc2ccc(NC(=O)c3cc4c(C)nn(C5CCCCC5)c4s3)cn2)CC1` [Example 414, N-{6-[(4-Acetyl-1-piperazinyl)methyl]-3-pyridinyl}-1-cyclohexyl-3-methyl-1H-thieno[2,3-c]pyrazole-5-carboxamide] were 2800 nM and 35 nM.
As to `CC(=O)Nc1ccc(NC(=O)c2cc3c(C)nn(C4CCCCC4)c3s2)cn1` [Example 47, N-[6-(Acetylamino)-3-pyridinyl]-1-cyclohexyl-3-methyl-1H-thieno[2,3-c]pyrazole-5-carboxamide], the IC50 in test [1] is 3500 nM; in test [2], 32 nM.
For `CC(=O)N1CCN(c2ccc(NC(=O)c3cc4c(C)nn(C5CCCCC5)c4s3)cc2)CC1` [Example 73, N-[4-(4-Acetyl-1-piperazinyl)phenyl]-1-cyclohexyl-3-methyl-1H-thieno[2,3-c]pyrazole-5-carboxamide], in that order: 1000 nM and 12 nM.
For `Cc1nn(C2CCCCC2)c2sc(C(=O)Nc3ccc(N4CCC(O)CC4)c(F)c3F)cc12` [Example 371, 1-Cyclohexyl-N-[2,3-difluoro-4-(4-hydroxy-1-piperidinyl)phenyl]-3-methyl-1H-thieno[2,3-c]pyrazole-5-carboxamide], the IC50 in test [1] was 3600 nM; in test [2], 17 nM.
Regarding `Cc1nn(C2CCCCC2)c2sc(C(=O)N[C@H]3CC[C@H](O)CC3)cc12` [Example 74, 1-Cyclohexyl-N-(trans-hydroxycyclohexyl)-3-methyl-1H-thieno[2,3-c]pyrazole-5-carboxamide], the values for the IC50 in test [1] and in test [2] were 7000 nM and 50 nM, respectively.
In the case of `CNC(=O)c1ccc(NC(=O)c2cc3c(C)nn(C4CCCCC4)c3s2)cc1` [Example 20], the results for the IC50 in test [1] and in test [2] were more than 30000 nM and 33 nM, respectively.
Take `Cc1nn(C2CCCCC2)c2sc(C(=O)Nc3ccc(N4CC[C@@H](O)C4)c(F)c3)cc12` [Example 263, 1-Cyclohexyl-N-{3-fluoro-4-[(3R)-3-hydroxypyrrolidinyl]phenyl}-3-methyl-1H-thieno[2,3-c]pyrazole-5-carboxamide]: the concentration for half-maximal inhibition (IC50) in test [1] stood at 3500 nM; in test [2] it was 54 nM.
For `Cc1nn(C2CCCCC2)c2sc(C(=O)Nc3ccc4c(c3)CCN4S(C)(=O)=O)cc12` [Example 59, 1-Cyclohexyl-3-methyl-N-[1-(methylsulfonyl)-2,3-dihydro-1H-indol-5-yl]-1H-thieno[2,3-c]pyrazole-5-carboxamide], in that order: 7000 nM and 80 nM.
For `Cc1nn(C2CCCCC2)c2sc(C(=O)NCCN3CCN(C)C(=O)C3=O)cc12` [Example 228, 1-Cyclohexyl-3-methyl-N-[2-(4-methyl-2,3-dioxo-1-piperazinyl)ethyl]-1H-thieno[2,3-c]pyrazole-5-carboxamide], in that order: 5800 nM and 51 nM.
